Seven molecules from patent publication US10344026B2, “Compositions and methods of targeting mutant K-ras” (NANTBIO, INC., priority 2017, dated 2019) can be followed below.

Format in all cases: cell-based
Assay [1] has as its system phospho-ERK in HCC827 (Wild-type). As to the kind of experiment: In-Cell Western phospho-ERK, HCC827. The settings on record: Homo sapiens, 1 h; HCC827, one hour treatment; read-out: In-Cell Western HCC827 (Wild-type) Erk (P). The method, boiled down: (§1)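 In-cell immunofluorescence: after 1 h compound exposure (final DMSO 0.5%) of cells plated 18 h beforehand, fixed cells were probed overnight at 4 °C with phospho-Akt/phospho-ERK antibodies and imaged. Maximal inhibition defined by 1 uM MEK Inhibitor II for pERK, 1 uM BEZ235 for pAkt; EC50 calculated.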

The subject of assay [2] is U87-MG (K-Ras wild type cell line). The assay can be described thus: Viability assay (CellTiterBlue, 72 hr) U87-MG. The following applies: Homo sapiens, U-87 MG, GI50, CellTiterBlue, U87-MG K-Ras wild-type. The method, boiled down: (§2)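 Cells were seeded at 1000 per well and allowed 18 hr at 37 °C in CO2 before compound addition (final DMSO 0.5%). After 72 hr exposure, CellTiterBlue was added for 3 hr and fluorescence read at Ex550/Em590. GI50 values were calculated against DMSO (100%) and 100 uM tamoxifen (0%) controls.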
For orientation: Resazurin is reduced to fluorescent resorufin, in cell work by metabolically active cells.

For the next assay, the system named is HCT116-G31D. The assay can be described thus: Viability assay (CellTiterBlue, 72 hr) HCT116. The following applies: Homo sapiens, HCT-116, GI50, CellTiterBlue, HCT116 K-Ras G13D, read-out: 72 hr Cell Viability HCT116 (G13D). The method, boiled down:
as §2

Assay [3] concerns phospho-ERK in Panc1 (G12D). As to the kind of experiment: In-Cell Western phospho-ERK, Panc1. The settings on record: Homo sapiens, PANC-1, 1 h; Panc1, one hour treatment; read-out: In-Cell Western Panc1 (G12D) Erk (P). The method, boiled down: as §1
Assay [4] concerns phospho-Akt in Panc10.05 (G12D). The assay can be described thus: In-Cell Western phospho-Akt, Panc10.05. The following applies: Homo sapiens, Panc1005, 1 h; Panc10.05, one hour treatment; read-out: In-Cell Western Panc10.05 (G12D) Akt (P). The essentials: as §1
The test system of assay [5] is phospho-ERK in A375 (Wild-type). The assay can be described thus: In-Cell Western phospho-ERK, A375. The following applies: Homo sapiens, A-375, 1 h; A375, one hour treatment; read-out: In-Cell Western A375 (Wild-type) Erk (P). The method, boiled down:
as §1

The test system of a further assay is Panc1-G12D. The assay can be described thus: Viability assay (CellTiterBlue, 72 hr) Panc1. The following applies: Homo sapiens, PANC-1, GI50, CellTiterBlue, Panc1 K-Ras G12D, read-out: 72 hr Cell Viability Panc1 (G12D). The method, boiled down:
as §2

Assay [6] relates to phospho-Akt in HCC827 (Wild-type). The assay can be described thus: In-Cell Western phospho-Akt, HCC827. The following applies: Homo sapiens, 1 h; HCC827, one hour treatment; read-out: In-Cell Western HCC827 (Wild-type) Akt (P). The method, boiled down:
as §1

The subject of assay [7] is HCC827 (K-Ras wild type cell line). The assay can be described thus: Viability assay (CellTiterBlue, 72 hr) HCC827. The settings on record: Homo sapiens, GI50, CellTiterBlue, HCC827 K-Ras wild-type. The essentials:
as §2

The target of another assay is T1, wild type K-Ras (Homo sapiens, UniProt P01116).
T1 construct: expressed in transfected cells; host or cells: 293H cells
T1 sequence (P01116 whole entry): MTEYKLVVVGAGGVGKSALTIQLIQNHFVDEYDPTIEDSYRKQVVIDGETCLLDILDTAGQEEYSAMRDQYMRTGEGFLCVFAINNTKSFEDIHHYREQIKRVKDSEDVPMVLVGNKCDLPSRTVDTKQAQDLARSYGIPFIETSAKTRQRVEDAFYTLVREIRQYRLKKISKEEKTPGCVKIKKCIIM
As to the kind of experiment: G-LISA Ras activation, 293H cells transfected with Ras wild-type, EGF stimulated. The following applies: compound 1 hour, then 100 ng/ml EGF 2 minutes. The essentials:
(§3)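 293H cells were transfected with wild-type or mutant Ras plasmid (Lipofectamine 3000), then exposed next day to compounds at 3.125-25 μM for 1 hour. Wild-type transfectants received 100 ng/ml EGF for 2 minutes before ice-cold PBS wash, lysis on ice and G-LISA readout of active Ras.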

In assay [8] the test system is Ishikawa (K-Ras wild type cell line). The assay can be described thus: Viability assay (CellTiterBlue, 72 hr) Ishikawa. The settings on record: Homo sapiens, GI50, CellTiterBlue, Ishikawa K-Ras wild-type. The method, boiled down: as §2
Assay [9] relates to phospho-Akt in A375 (Wild-type). As to the kind of experiment: In-Cell Western phospho-Akt, A375. The following applies: Homo sapiens, A-375, 1 h; A375, one hour treatment; read-out: In-Cell Western A375 (Wild-type) Akt (P). The method, boiled down: as §1
Assay [10] concerns phospho-ERK in Panc10.05 (G12D). The assay can be described thus: In-Cell Western phospho-ERK, Panc10.05. The settings on record: Homo sapiens, Panc1005, 1 h; Panc10.05, one hour treatment; read-out: In-Cell Western Panc10.05 (G12D) Erk (P). The essentials:
as §1

The subject of another assay is Panc10.05-G12D. As to the kind of experiment: Viability assay (CellTiterBlue, 72 hr) Panc10.05. The settings on record: Homo sapiens, Panc1005, GI50, CellTiterBlue, Panc10.05 K-Ras G12D, read-out: 72 hr Cell Viability Panc10.05 (G12D). The method, boiled down:
as §2

The target in a further assay is T2, K-Ras G12D (Homo sapiens, UniProt P01116, G12D).
T2 construct: expressed in transfected cells; host or cells: 293H cells
T2 sequence (P01116 whole entry G12D): as the sequence (P01116 whole entry) above, with G12D counted along it
The assay can be described thus: G-LISA Ras activation, 293H cells transfected with G12D mutant. The following applies: compound 1 hour. The essentials:
as §3

Assay [11] deals with A375 (K-Ras wild type cell line). The assay can be described thus: Viability assay (CellTiterBlue, 72 hr) A375. The settings on record: Homo sapiens, A-375, GI50, CellTiterBlue. The method, boiled down:
as §2

Assay [12] concerns phospho-Akt in Panc1 (G12D). As to the kind of experiment: In-Cell Western phospho-Akt, Panc1. The following applies: Homo sapiens, PANC-1, 1 h; Panc1, one hour treatment; read-out: In-Cell Western Panc1 (G12D) Akt (P). The method, boiled down:
as §1

Turning to `CCCn1nc(C)c(C(=O)Nc2nc(-c3ccc4c(c3)CCC(=O)N4)cs2)c1C` [Compound 55, 3,5-dimethyl-N-(4-(2-oxo-1,2,3,4-tetrahydroquinolin-6-yl)thiazol-2-yl)-1-propyl-1H-pyrazole-4-carboxamide], the EC50 in [1], in assay [3], in [4], in assay [5], in assay [6] and in assay [9] was over 25 µM in each case. The EC50 in [10] was 14 µM; in assay [12], over 25 µM. For the same molecule, the IC50 in assay [2] is over 25 µM; in the assay with HCT116-G31D it was over 25 µM; in the assay with Panc1-G12D, over 25 µM; in assay [7], over 25 µM; against wild type K-Ras, 6.5 µM; in assay [8] it was over 25 µM. Further, the results for the IC50 (with Panc10.05-G12D; on K-Ras G12D; in assay [11]) were over 25 µM, 4 µM and over 25 µM, respectively.
On to `Cc1nn(C(C)C)c(C)c1C(=O)Nc1nc(-c2ccc3c(c2)CCC(=O)N3)cs1` [Compound 52, 1-isopropyl-3,5-dimethyl-N-(4-(2-oxo-1,2,3,4-tetrahydroquinolin-6-yl)thiazol-2-yl)-1H-pyrazole-4-carboxamide], for which the EC50 in assay [1] is 20 µM; in [3] it was 8 µM; in assay [4], 18 µM; in assay [5], 14 µM; in [6] it was over 25 µM; in assay [9] it was 24 µM. For the same molecule, the EC50 is 4 µM in assay [10] and over 25 µM in assay [12]. The IC50 is 14 µM in [2]; 10 µM in the assay on HCT116-G31D; 16 µM with Panc1-G12D; 10 µM in assay [7]; 13.9 µM on wild type K-Ras; 13 µM in assay [8]. Further, the IC50 with Panc10.05-G12D was determined as 15 µM; against K-Ras G12D, 5.2 µM; in assay [11] it was 5 µM.
As to `Cc1nn(C(C)C)cc1C(=O)Nc1nc(-c2ccc3c(c2)CCC(=O)N3Cc2cccnc2)cs1` [Compound 116, 1-isopropyl-3-methyl-N-(4-(2-oxo-1-(pyridin-3-ylmethyl)-1,2,3,4-tetrahydroquinolin-6-yl)thiazol-2-yl)-1-pyrazole-4-carboxamide], the EC50 in assay [1] is 3 µM; in assay [3], 3 µM; in assay [4], 2 µM; in assay [5] it was 12 µM; in [6], over 25 µM; in assay [9] it was over 25 µM. For the same molecule, the EC50 stood at 0.745 µM in [10] and 22 µM in [12]. In addition, the IC50 is over 25 µM in assay [2]; over 25 µM in the assay with HCT116-G31D; 3 µM with Panc1-G12D; 4 µM in [7]; 6.1 µM against wild type K-Ras; 21 µM in assay [8]. In addition, the IC50 in the assay on Panc10.05-G12D was determined as 1.2 µM; against K-Ras G12D it was 2.5 µM; in assay [11] it was 12 µM.
On to `CCc1nc(C)c(C(=O)Nc2nc(-c3ccc4c(c3)CCC(=O)N4CCOC)cs2)o1` [Compound 110, 2-ethyl-N-(4-(1-(2-methoxyethyl)-2-oxo-1,2,3,4-tetrahydroquinolin-6-yl)thiazol-2-yl)-4-methyloxazole-5-carboxamide], for which the EC50 in assay [1] is 4 µM; in assay [3], 3 µM; in assay [4], 3 µM; in [5] it was 23 µM; in assay [6], over 25 µM; in [9], over 25 µM. For the same molecule, the EC50 was 1.3 µM in assay [10] and 23 µM in [12]. Besides, the IC50 in assay [2] was 17 µM; with HCT116-G31D it was over 25 µM; in the assay with Panc1-G12D, 4 µM; in assay [7], 4 µM; on wild type K-Ras it was 6.8 µM; in assay [8], 10 µM. Moreover, the IC50 was 0.778 µM with Panc10.05-G12D, 3.9 µM on K-Ras G12D and over 25 µM in assay [11].
With `Cc1nn(C(C)(C)C)c(C)c1C(=O)Nc1nc(-c2ccc3c(c2)CCC(=O)N3)cs1` [Compound 57, 1-(tert-butyl)-3,5-dimethyl-N-(4-(2-oxo-1,2,3,4-tetrahydroquinolin-6-yl)thiazol-2-yl)-1H-pyrazole-4-carboxamide], the EC50 was over 25 µM in assay [1]; 26 µM in assay [3]; over 25 µM in [4]; over 25 µM in [5]; over 25 µM in assay [6]; over 25 µM in assay [9]. Further, the EC50 in assay [10] was 6 µM; in [12], over 25 µM. For the same molecule, the IC50 in assay [2] is over 25 µM; in the assay on HCT116-G31D, over 25 µM; in the assay on Panc1-G12D it was over 25 µM; in assay [7], over 25 µM; on wild type K-Ras, 30 µM; in assay [8] it was over 25 µM. In addition, the IC50 in the assay on Panc10.05-G12D worked out at 8 µM; on K-Ras G12D, 9.4 µM; in [11], 27 µM.
Take `Cc1nn(-c2ccccc2)c(C)c1C(=O)Nc1nc(-c2ccc3c(c2)CCC(=O)N3)cs1` [Compound 53, 3,5-dimethyl-N-(4-(2-oxo-1,2,3,4-tetrahydroquinolin-6-yl)thiazol-2-yl)-1-phenyl-1H-pyrazole-4-carboxamide]: the EC50 in assay [1] is 14 µM; in assay [3], 16 µM; in assay [4], 15 µM; in assay [5], 6 µM; in assay [6], over 25 µM; in assay [9], 10 µM. For the same molecule, the results for the EC50 in [10] and in [12] were 3 µM and over 25 µM, respectively. For the same molecule, the IC50 in assay [2] stood at 15 µM; in the assay with HCT116-G31D, 11 µM; in the assay on Panc1-G12D, 12 µM; in assay [7] it was 10 µM; at wild type K-Ras it was 7.7 µM; in [8], 13 µM. The IC50 in the assay on Panc10.05-G12D stood at 10 µM; on K-Ras G12D, 6.7 µM; in assay [11], 3 µM.
Consider `Cc1nn(-c2ccc(F)cc2)c(C)c1C(=O)Nc1nc(-c2ccc3c(c2)CCC(=O)N3)cs1` [Compound 54, 1-(4-fluorophenyl)-3,5-dimethyl-N-(4-(2-oxo-1,2,3,4-tetrahydroquinolin-6-yl)thiazol-2-yl)-1-pyrazole-4-carboxamide], for which the EC50 in assay [1], in [3], in assay [4], in assay [5], in [6] and in [9] was over 25 µM throughout. Besides, the EC50 in assay [10] was 3 µM; in [12], over 25 µM. Besides, the IC50 in assay [2] is 15 µM; in the assay with HCT116-G31D, 23 µM; with Panc1-G12D it was 15 µM; in assay [7] it was 13 µM; at wild type K-Ras it was 10.6 µM; in [8] it was over 25 µM. The values for the IC50 (in the assay with Panc10.05-G12D; against K-Ras G12D; in [11]) were 6 µM, 7.9 µM and 26 µM, respectively.
